Test results as given in publication PMC4276521 (Biochemical pharmacology, 2014).
Values joined by “and” are separate entries in the source; they are usually repeats but may differ in a detail not shown here. Equal entries are not always repeated. Structures can show the parent of a compound that is named as a salt. Where two headings read alike, the source gives them in different places.

Key:
DRD2 [1] = molecular target: T1, DRD2 (Homo sapiens, UniProt P14416)
DRD2 [2] = molecular target: T1, DRD2; test: cell-based
DRD2 [3] = molecular target: T1, DRD2; remark: listed apart in the source
DRD2 [4] = molecular target: T1, DRD2; remark: listed apart in the source
DRD2 [5] = molecular target: T1, DRD2; conditions: HEK-AC5/D2 cells; percentage of dopamine's response, standard error in brackets

T1 sequence (P14416 whole entry, species assumed): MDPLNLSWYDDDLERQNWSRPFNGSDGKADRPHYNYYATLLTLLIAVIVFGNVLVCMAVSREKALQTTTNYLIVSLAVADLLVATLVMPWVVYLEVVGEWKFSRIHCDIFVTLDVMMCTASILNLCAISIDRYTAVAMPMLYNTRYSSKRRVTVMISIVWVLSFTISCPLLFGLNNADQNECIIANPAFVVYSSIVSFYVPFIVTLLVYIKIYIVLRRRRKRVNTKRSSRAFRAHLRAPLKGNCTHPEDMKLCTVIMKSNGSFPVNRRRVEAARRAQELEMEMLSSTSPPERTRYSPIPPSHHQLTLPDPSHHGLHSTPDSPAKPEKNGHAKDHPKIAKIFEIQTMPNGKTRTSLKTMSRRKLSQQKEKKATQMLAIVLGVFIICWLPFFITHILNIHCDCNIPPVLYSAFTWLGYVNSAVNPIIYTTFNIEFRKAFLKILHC

Row | SMILES | Gαi/o activation Max (DRD2 [1]) | EC50 (DRD2 [2]) [nM] | Gβγ activation Max (DRD2 [3]) | DMR (AUC) Max (DRD2 [4]; HEK-D2 cells, percentage of dopamine's response, standard error in brackets) | Gαi/o activation Max (DRD2 [1]; HEK-AC5/D2 cells, percentage of dopamine's response, standard error in brackets) | Gβγ activation Max (DRD2 [3]; HEK-AC2/D2 cells, percentage of dopamine's response, standard error in brackets) | Sensitization Max (DRD2 [5]) | DMR (AUC) Max (DRD2 [4])
1 | CCCN(CCc1cccs1)[C@H]1CCc2c(O)cccc2C1 [Rotigotine, rotigotine hydrochloride] | 88 (±4) % | 0.05 | 79% and 79 (±4) % | – | – | – | – | –
2 | CCCN(CCC)CCc1cccc2c1CC(=O)N2 [Ropinirole, ropinirole hydrochloride] | – | – | – | 100 (±2) % | 81 (±6) % | 70 (±4) % | 126 (±3) % | –
3 | CCCN[C@H]1CCc2nc(N)sc2C1 [Pramipexole, pramipexole dihydrochloride] | 87 (±4) % | – | 98% and 98 (±5) % | – | – | – | – | 98 (±2) %
